Ends that are not written are not given here.
Columns and labels:
[1] = Solubility in aqueous solvent, visual check for precipitation; type: physicochemical; conditions: room temperature
Procedure: For each of the example peptides (Syn FPs) and the comparative example peptides, a 1 mmol/L peptide solution was prepared using MilliQ water as an aqueous solvent.
Each peptide was dissolved in a saline solution to prepare a 1 mmol/L sample solution.

[2] = test system: mouse neuroblastoma (Neuro2a) cells; assay: Cell viability by WST-8 method after addition of incubated reaction solutions (Example B6); type: cell-based; conditions: reaction solution containing only the aggregation inhibiting peptide
Procedure: Then, reaction solutions with the following compositions were prepared using these solutions. The reaction solutions were incubated at 37° C. for 24 hours.
Meanwhile, 0.15 mL of medium per well was placed in the wells of a 96-well plate, and mouse neuroblastoma (Neuro2a) cells were seeded to be 2.66×10^4 cells per well. After incubation at 37° C. for 24 hours, 50 μL of each reaction solution after the incubation was added per well and further incubated at 37° C. for 24 hours. The cell viability (%) was then measured for each well by the WST-8 method.

[3] = test system: Parkinson's disease model mice; assay: Rota-Rod test in Parkinson's disease model mice produced with Syn61-84 (Example B4); type: in vivo
Procedure: (§1) As a control, a saline solution (Saline) was used.
(§2) The aggregation inhibiting peptide was not administered to the Saline administration group (n=3).
(§3) The short-term memory was evaluated through a Y-maze test on Day 14, Day 56, and Day 74, and the motor function was evaluated through a Rota-Rod test on Day 21, Day 55, Day 63, and Day 70. […] The Rota-Rod test was conducted using a rotor-rod device for mice (product name: MK-670, manufactured by Muromachi Kikai Co., Ltd.), with the rotational speed of the rotor set at 10 or 20 rpm, and the time until a mouse on the rotating rotor fell was measured.

[4] = test system: Parkinson's disease model mice; assay: Y-maze test in Parkinson's disease model mice produced with Syn61-84 (Example B4); type: in vivo; conditions: Day 74; 4 μL of 1 mmol/L inhibiting peptide on Day 56 to Syn61-84 mice
Procedure: as §1, §2, §3

[5] = target: Syn61-84 aggregates (Homo sapiens, UniProt P37840); assay: Dissociation of Syn61-84 aggregates, ThT fluorescence (Example B3); type: biochemical; conditions: peptide 0.1, 1, 10, 100 μmol/L; 0.1 mM preformed Syn61-84 aggregates; 37° C. 24 hours
Procedure: Then, reaction solutions with the following compositions were prepared and each dispensed into wells such that the amount of the reaction solution per well was 200 μL, and, after the reaction solutions were incubated at 37° C. for 24 hours, 10 μL of 2 mmol/L ThT was added per well, and the fluorescence intensity was measured using a measurement device (product name Cytation5, manufactured by BioTek) (n=3). The measurement wavelengths were set such that the excitation wavelength (ex) was 444 nm and the fluorescence wavelength (em) was 480 nm. In the following compositions, X mmol/L peptides (aggregation inhibiting peptides: YS-11 and LYZA-3) were prepared using MilliQ water, and the concentration X mmol/L was set to 0.1 μmol/L, 1 μmol/L, 10 μmol/L, and 100 μmol/L in the reaction solutions. As a control, a reaction solution to which water was added instead of the peptide YS-11 and the peptide LYZA-3 was also measured in the same way.

[6] = target: Syn61-84 (Homo sapiens, UniProt P37840); assay: Inhibition of aggregate formation of Syn61-84, ThT fluorescence (Example B2); type: biochemical
Procedure: Specifically, reaction solutions with the following compositions were prepared and each dispensed into wells such that the amount of the reaction solution per well was 200 μL. In the following compositions, X mmol/L peptides (aggregation inhibiting peptide solutions: YS-11 and LYZA-3) were prepared using MilliQ water, and the concentration X mmol/L was set to 1 μmol/L, […], and 100 μmol/L in the reaction solutions. […] After the reaction solutions were incubated at 37° C. for 24 hours, 10 μL of 2 mmol/L ThT was added per well, and the fluorescence intensity was measured using a measurement device (product name: Cytation5, manufactured by BioTek) (n=3). The measurement wavelengths were set such that the excitation wavelength (ex) was 444 nm and the fluorescence wavelength (em) was 480 nm. As a control, a reaction solution to which water was added instead of the aggregation inhibiting peptides (YS-11 and LYZA-3) was also measured in the same way.

α-synuclein [full-length Syn]
solubility (visual precipitation) ([1]; 1 mmol/L in MilliQ water): precipitation of Syn was immediately visible

VVTGVTAVAQKTVEG [Syn70-84, reference compound]
solubility (visual precipitation) ([1]; 1 mmol/L in saline solution): No precipitation

RETLVYLTHLD [YS-11]
cell viability (control taken as 100%) [2]: no effect on the cell viability

YSNFNTDY (aggregation inhibitor peptide) [LYZA-3]
spent time (Rota-Rod) at 10 rpm ([3]; 10 rpm, RR-3 and RR-4 after inhibiting peptide on Day 56): significant increase | spent time (Rota-Rod) at 10 rpm versus Saline administration group ([3]; 10 rpm, RR-4): longer than that of the Saline administration group | spent time (Rota-Rod) ([3]; RR-3 and RR-4, after inhibiting peptide on Day 56 to Syn61-84 mice): increase in the spent time | alternation rate (Y-maze) compared with Saline administration group [4]: increase in the alternation rate | fluorescence intensity (ThT) compared with the control (Syn61-84), dissociation of aggregates [5]: fluorescence intensity decreased | aggregation inhibition ability compared at the same concentration (formation of aggregates) ([6]; comparison between FIGS. 4(A) and 4(B)): greater aggregation inhibition ability than the peptide YS-11 | fluorescence intensity (ThT) compared with the control (Syn61-84) ([6]; peptide 1 μmol/L, 100 μmol/L, 0.1 mM Syn61-84, 37° C. 24 hours): decreased in a concentration-dependent manner
